Results: patent US20120115903A1, “Substituted Heteroaromatic Carboxamide and Urea Compounds as Vanilloid Receptor Ligands” (Gruenenthal GmbH, priority 2010, published 2012)

Tests used:
Assay type in all cases: cell-based
[1] = target: T1, vanilloid receptor 1 (VR1/TRPV1 receptor) (Homo sapiens, UniProt Q8NER1); assay: FLIPR Ca2+ influx assay with CHO K1 cells transfected with the human VR1 gene, capsaicin stimulus; details: Cap = capsaicin (100 nM), Ki from IC50 by Cheng-Prusoff, read-out: Ki (human being) [nM] Cap
T1 construct: expressed in transfected cells; host or cells: CHO K1 cells (ECACC), stably transfected
T1 sequence (Q8NER1 whole entry): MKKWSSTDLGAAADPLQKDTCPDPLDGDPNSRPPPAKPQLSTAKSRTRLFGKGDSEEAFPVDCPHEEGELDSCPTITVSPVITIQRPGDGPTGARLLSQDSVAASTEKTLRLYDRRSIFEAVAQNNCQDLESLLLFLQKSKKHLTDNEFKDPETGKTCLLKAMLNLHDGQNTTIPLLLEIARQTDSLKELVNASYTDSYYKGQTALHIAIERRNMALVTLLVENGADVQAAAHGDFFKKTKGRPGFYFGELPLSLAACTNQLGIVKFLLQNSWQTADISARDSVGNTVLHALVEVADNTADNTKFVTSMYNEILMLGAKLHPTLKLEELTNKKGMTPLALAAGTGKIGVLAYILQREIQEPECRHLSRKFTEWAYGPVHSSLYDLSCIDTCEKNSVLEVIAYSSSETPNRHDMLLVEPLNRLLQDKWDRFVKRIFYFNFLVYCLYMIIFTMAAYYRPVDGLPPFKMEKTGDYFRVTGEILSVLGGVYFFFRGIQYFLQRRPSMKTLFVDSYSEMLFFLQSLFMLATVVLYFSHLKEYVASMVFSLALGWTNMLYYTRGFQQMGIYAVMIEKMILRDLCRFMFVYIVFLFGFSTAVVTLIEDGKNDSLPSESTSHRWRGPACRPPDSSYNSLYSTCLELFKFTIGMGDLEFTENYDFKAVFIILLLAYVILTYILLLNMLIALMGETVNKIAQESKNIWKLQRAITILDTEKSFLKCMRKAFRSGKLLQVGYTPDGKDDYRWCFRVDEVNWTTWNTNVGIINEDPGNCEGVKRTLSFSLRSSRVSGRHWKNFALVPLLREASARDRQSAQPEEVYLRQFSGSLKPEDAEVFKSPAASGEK
Procedure: Furthermore, preference may be given to compounds according to the invention of general formula (I) that cause a 50 percent displacement of capsaicin, which is present at a concentration of 100 nM, in a FLIPR assay with CHO K1 cells which were transfected with the human VR1 gene at a concentration of less than 2,000 nM, preferably less than 1,000 nM, particularly preferably less than 300 nM, most particularly preferably less than 100 nM, even more preferably less than 75 nM, additionally preferably less than 50 nM, most preferably less than 10 nM. In the process, the Ca^2+ influx is quantified in the FLIPR assay with the aid of a Ca^2+-sensitive dye (type Fluo-4, Molecular Probes Europe BV, Leiden, the Netherlands) in a fluorescent imaging plate reader (FLIPR, Molecular Devices, Sunnyvale, USA), as described hereinafter. The agonistic or antagonistic effect of the substances to be tested on the vanilloid receptor 1 (VR1) can also be determined using the following assay. In this assay, the influx of Ca^2+ through the channel is quantified with the aid of a Ca^2+-sensitive dye (type Fluo-4, Molecular Probes Europe BV, Leiden, the Netherlands) in a fluorescent imaging plate reader (FLIPR, Molecular Devices, Sunnyvale, USA). Chinese hamster ovary cells (CHO K1 cells, European Collection of Cell Cultures (ECACC) United Kingdom) are stably transfected with the VR1 gene. For functional testing, these cells are plated out on poly-D-lysine-coated black 96-well plates having a clear base (BD Biosciences, Heidelberg, Germany) at a density of 25,000 cells/well. The cells are incubated overnight at 37° C. and 5% CO2 in a culture medium (Ham's F12 nutrient mixture, 10% by volume of FCS (foetal calf serum), 18 μg/ml of L-proline). The next day the cells are incubated with Fluo-4 (Fluo-4 2 μM, 0.01% by volume of Pluronic F127, Molecular Probes in HBSS (Hank's buffered saline solution), Gibco Invitrogen GmbH, Karlsruhe, Germany) for 30 minutes at 37° C. Subsequently, the plates are washed three times with HBSS buffer and after further incubation for 15 minutes at RT used for Ca^2+ measurement in a FLIPR assay. The Ca^2+-dependent fluorescence is measured before and after the addition of the substances to be tested (λex wavelength=488 nm, λem=540 nm). Quantification is carried out by measuring the highest fluorescence intensity (FC, fluorescence counts) over time. The FLIPR protocol consists of 2 substance additions. First the compounds to be tested (10 μM) are pipetted onto the cells and the Ca^2+ influx is compared with the control (capsaicin 10 μM) (% activation based on the Ca^2+ signal after the addition of 10 μM of capsaicin). After 5 minutes' incubation, 100 nM of capsaicin are applied and the Ca^2+ influx is also determined. Desensitising agonists and antagonists led to suppression of the Ca^2+ influx. The % inhibition is calculated compared to the maximum achievable inhibition with 10 μM of capsaicin. Starting from the percentage displacement caused by different concentrations of the compounds to be tested of general formula I, IC50 inhibitory concentrations which cause a 50-percent displacement of capsaicin were calculated. K, values for the test substances were obtained by conversion by means of the Cheng-Prusoff equation (Cheng, Prusoff; Biochem. Pharmacol. 22, 3099-3108, 1973). The affinity of the compounds according to the invention for the vanilloid receptor 1 (VR1/TRPV1 receptor) was determined as described hereinbefore (pharmacological methods I and II respectively). The compounds according to the invention of the above-indicated formula (I) display outstanding affinity to the VR1/TRPV1 receptor (Table 1.).

[2] = target: T2, vanilloid receptor 1 (VR1/TRPV1 receptor) (Mus musculus, UniProt Q704Y3); assay: FLIPR Ca2+ influx assay on vanilloid receptor 1, capsaicin stimulus (mouse); details: Cap = capsaicin, Ki from IC50 by Cheng-Prusoff
T2 construct: expressed in transfected cells; host or cells: CHO K1 cells (inferred: method II; method I is described for rat DRG neurons only)
T2 sequence (Q704Y3 whole entry): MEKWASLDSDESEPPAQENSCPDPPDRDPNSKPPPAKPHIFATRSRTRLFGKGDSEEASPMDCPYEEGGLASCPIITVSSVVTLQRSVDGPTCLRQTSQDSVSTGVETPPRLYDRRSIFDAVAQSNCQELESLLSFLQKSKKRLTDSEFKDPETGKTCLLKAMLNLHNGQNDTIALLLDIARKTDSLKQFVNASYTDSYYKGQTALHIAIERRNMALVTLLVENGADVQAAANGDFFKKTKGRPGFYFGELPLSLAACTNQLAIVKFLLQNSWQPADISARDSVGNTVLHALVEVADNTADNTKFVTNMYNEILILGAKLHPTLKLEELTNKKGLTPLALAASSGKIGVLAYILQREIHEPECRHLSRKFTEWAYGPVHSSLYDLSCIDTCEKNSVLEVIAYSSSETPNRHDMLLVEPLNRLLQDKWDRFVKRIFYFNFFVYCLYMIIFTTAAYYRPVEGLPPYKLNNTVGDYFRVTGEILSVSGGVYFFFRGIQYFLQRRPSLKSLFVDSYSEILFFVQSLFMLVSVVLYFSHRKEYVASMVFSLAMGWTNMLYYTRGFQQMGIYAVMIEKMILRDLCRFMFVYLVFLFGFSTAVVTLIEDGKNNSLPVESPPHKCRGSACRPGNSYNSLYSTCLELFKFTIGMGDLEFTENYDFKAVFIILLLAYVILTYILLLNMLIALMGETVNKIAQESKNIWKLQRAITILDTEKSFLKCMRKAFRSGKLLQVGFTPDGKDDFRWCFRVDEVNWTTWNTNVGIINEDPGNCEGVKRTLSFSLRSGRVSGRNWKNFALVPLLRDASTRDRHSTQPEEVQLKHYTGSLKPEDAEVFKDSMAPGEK
Excerpt: The agonistic or antagonistic effect of the substances to be tested on the vanilloid receptor 1 (VR1) can also be determined using the following assay. In this assay, the influx of Ca^2+ through the channel is quantified with the aid of a Ca^2+-sensitive dye (type Fluo-4, Molecular Probes Europe BV, Leiden, the Netherlands) in a fluorescent imaging plate reader (FLIPR, Molecular Devices, Sunnyvale, USA).
Chinese hamster ovary cells (CHO K1 cells, European Collection of Cell Cultures (ECACC) United Kingdom) are stably transfected with the VR1 gene. […] The Ca^2+-dependent fluorescence is measured before and after the addition of the substances to be tested (λex wavelength=488 nm, λem=540 nm). Quantification is carried out by measuring the highest fluorescence intensity (FC, fluorescence counts) over time.
The FLIPR protocol consists of 2 substance additions. […] After 5 minutes' incubation, 100 nM of capsaicin are applied and the Ca^2+ influx is also determined. […]
Starting from the percentage displacement caused by different concentrations of the compounds to be tested of general formula I, IC50 inhibitory concentrations which cause a 50-percent displacement of capsaicin were calculated. […]
The affinity of the compounds according to the invention for the vanilloid receptor 1 (VR1/TRPV1 receptor) was determined as described hereinbefore (pharmacological methods I and II respectively). […]

[3] = target: T1, vanilloid receptor 1 (VR1/TRPV1 receptor); assay: Functional test on vanilloid receptor 1, 45° C. stimulus (human); details: for IC50: read-out: IC50 (human being) [nM], 45° C.
[4] = target: T1, vanilloid receptor 1 (VR1/TRPV1 receptor); assay: FLIPR Ca2+ influx assay with CHO K1 cells transfected with the human VR1 gene, capsaicin stimulus; details: read-out: inhibition (as a percentage), human being, Cap; for inhibition at 5 µM: @ 5 μM compound

Molecule	Ki [1] [nM]	also measured
CC(C(=O)NCc1cc(C(F)(F)F)nn1-c1ccccc1)c1cn(C)c2ccccc12 (stereo not shown) [Example 1, 2-(1-methyl-1H-indol-3-yl)-N-((1-phenyl-3-(trifluoromethyl)-1H-pyrazol-5-yl)methyl)propanamide]	42.1	
CC(C(=O)NCc1cc(C(C)(C)C)nn1-c1cccc(Cl)c1)c1cn(C)c2ccccc12 (stereo not shown) [Example 2, N-((3-tert-butyl-1-(3-chlorophenyl)-1H-pyrazol-5-yl)methyl)-2-(1-methyl-1H-indol-3-yl)propanamide]	33.6	
COc1cccc(-n2nc(C(F)(F)F)cc2CNC(=O)C(C)c2cn(C)c3ccccc23)c1 (stereo not shown) [Example 3, N-((1-(3-methoxyphenyl)-3-(trifluoromethyl)-1H-pyrazol-5-yl)methyl)-2-(1-methyl-1H-indol-3-yl)propanamide]	49.8	
Cc1cccc(-n2nc(C(F)(F)F)cc2CNC(=O)C(C)c2cn(C)c3ccc(O)cc23)c1 (stereo not shown) [Example 5, 2-(5-hydroxy-1-methyl-1H-indol-3-yl)-N-((1-m-tolyl-3-(trifluoromethyl)-1H-pyrazol-5-yl)methyl)propanamide]	0.6	Ki [2]: 38.5 nM
CC(C(=O)NCc1cc(C(C)(C)C)nn1-c1ccccn1)c1cn(C)c2ccc(O)cc12 (stereo not shown) [Example 6, N-((3-tert-butyl-1-(pyridin-2-yl)-1H-pyrazol-5-yl)methyl)-2-(5-hydroxy-1-methyl-1H-indol-3-yl)propanamide]	56.8	
Cc1c(C(F)(F)F)nn(-c2cccc(Cl)c2)c1CNC(=O)C(C)c1cn(C)c2ccc(O)cc12 (stereo not shown) [Example 7, N-((1-(3-chlorophenyl)-4-methyl-3-(trifluoromethyl)-1H-pyrazol-5-yl)methyl)-2-(5-hydroxy-1-methyl-1H-indol-3-yl)propanamide]	0.4	inhibition at 2.5 µM ([3]; @ 2.5 μM compound, read-out: inhibition (as a percentage), human being, 45° C.): 36%
CC(C(=O)NCc1cc(C(F)(F)F)nn1-c1cccc(Cl)c1)c1cn(C)c2ccccc12 (stereo not shown) [Example 8, N-((1-(3-chlorophenyl)-3-(trifluoromethyl)-1H-pyrazol-5-yl)methyl)-2-(1-methyl-1H-indol-3-yl)propanamide]	6.4	IC50 [3]: 924 nM
Cn1cc(CC(=O)NCc2cc(C(F)(F)F)nn2-c2cccc(Cl)c2)c2cc(O)ccc21 [Example 9, N-((1-(3-chlorophenyl)-3-(trifluoromethyl)-1H-pyrazol-5-yl)methyl)-2-(5-hydroxy-1-methyl-1H-indol-3-yl)acetamide]	0.25	IC50 [3]: 1730 nM
CC(C(=O)NCc1cc(C(C)(C)C)nn1-c1ccc(F)c(Cl)c1)c1cn(C)c2ccc(O)cc12 (stereo not shown) [Example 11, N-((3-tert-butyl-1-(3-chloro-4-fluorophenyl)-1H-pyrazol-5-yl)methyl)-2-(5-hydroxy-1-methyl-1H-indol-3-yl)propanamide]	0.7	IC50 [3]: 39 nM
CC(C(=O)NCc1cc(C2CC2)nn1-c1cccc(Cl)c1)c1cn(C)c2ccc(O)cc12 (stereo not shown) [Example 12, N-((1-(3-chlorophenyl)-3-cyclopropyl-1H-pyrazol-5-yl)methyl)-2-(5-hydroxy-1-methyl-1H-indol-3-yl)propanamide]	1.1	IC50 [3]: 95.8 nM
COc1ccc2c(c1)c(CC(=O)NCc1cc(C(C)(C)C)nn1-c1cccc(Cl)c1)cn2C [Example 13, N-((3-tert-butyl-1-(3-chlorophenyl)-1H-pyrazol-5-yl)methyl)-2-(5-methoxy-1-methyl-1H-indol-3-yl)acetamide]	33.3	
COc1ccc2c(c1)c(C(C)C(=O)NCc1cc(C(C)(C)C)nn1-c1cccc(Cl)c1)cn2C (stereo not shown) [Example 14, N-((3-tert-butyl-1-(3-chlorophenyl)-1H-pyrazol-5-yl)methyl)-2-(5-methoxy-1-methyl-1H-indol-3-yl)propanamide]	48.1	
CC(C(=O)NCc1cc(C(F)(F)F)nn1CC1CC1)c1cn(C)c2ccccc12 (stereo not shown) [Example 15, N-((1-(cyclopropylmethyl)-3-(trifluoromethyl)-1H-pyrazol-5-yl)methyl)-2-(1-methyl-1H-indol-3-yl)propanamide]		inhibition at 5 µM [4]: 14%
O=C(NCc1cc(C(F)(F)F)nn1-c1cccc(Cl)c1)Nc1n[nH]c2ccccc12 [Example 16, 1-((1-(3-chlorophenyl)-3-(trifluoromethyl)-1H-pyrazol-5-yl)methyl)-3-(1H-indazol-3-yl)urea]		inhibition at 5 µM [4]: 24%
Cn1nc(NC(=O)NCc2cc(C(F)(F)F)nn2-c2cccc(Cl)c2)c2cccnc21 [Example 17, 1-((1-(3-chlorophenyl)-3-(trifluoromethyl)-1H-pyrazol-5-yl)methyl)-3-(1-methyl-1H-pyrazolo[3,4-b]pyridin-3-yl)urea]		inhibition at 1 µM ([4]; @ 1 μM compound): 4%; inhibition at 5 µM [4]: 30%
Cn1cc(CC(=O)NCc2nc(C(C)(C)C)nn2-c2cccc(Cl)c2)c2cc(O)ccc21 [Example 18, N-((3-tert-butyl-1-(3-chlorophenyl)-1H-1,2,4-triazol-5-yl)methyl)-2-(5-hydroxy-1-methyl-1H-indol-3-yl)acetamide]	70.9	
N-((1-cyclopentyl-3-(trifluoromethyl)-1H-pyrazol-5-yl)methyl)-2-(5-hydroxy-1-methyl-1H-indol-3-yl)propanamide [Example 4]	4.8	IC50 [3]: 92 nM
